In US20080021030A1, “Substituted Pyrazoles As Ppar Agonists” (priority 2003, published 2008):

Experiments:
Assay in all cases: Transient transfection (transactivation) assay in CV-1 cells, GAL4-PPAR LBD chimera, SPAP reporter
Type in all cases: cell-based
hPPAR alpha = molecular target: T1, hPPAR alpha (Homo sapiens, UniProt Q07869); details: read-out: EC50 μM HPPARα
T1 construct: expressed in transfected cells; host or cells: CV-1 cells
T1 sequence (Q07869 239-466 limits assumed): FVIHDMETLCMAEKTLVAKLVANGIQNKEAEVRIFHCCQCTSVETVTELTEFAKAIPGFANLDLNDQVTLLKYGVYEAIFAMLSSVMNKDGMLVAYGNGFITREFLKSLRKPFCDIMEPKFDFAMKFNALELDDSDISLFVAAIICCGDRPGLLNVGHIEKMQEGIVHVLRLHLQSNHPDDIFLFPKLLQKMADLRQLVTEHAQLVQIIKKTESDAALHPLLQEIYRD
Source text: (§1) Compounds were screened for functional potency in transient transfection assays in CV-1 cells for their ability to activate the PPAR subtypes (transactivation assay). A previously established chimeric receptor system was utilized to allow comparison of the relative transcriptional activity of the receptor subtypes on the same target gene and to prevent endogenous receptor activation from complicating the interpretation of results. See, for example, Lehmann, J. M.; Moore, L. B.; Smith-Oliver, T. A.; Wilkison, W. O.; Willson, T. M.; Kliewer, S. A., An antidiabetic thiazolidinedione is a high affinity ligand for peroxisome proliferator-activated receptor gamma (PPARgamma), J. Biol. Chem., 270, 12953-6 (1995). The ligand binding domains for murine and human PPAR alpha, PPAR gamma, and PPAR delta were each fused to the yeast transcription factor GAL4 DNA binding domain. CV-1 cells were transiently transfected with expression vectors for the respective PPAR chimera along with a reporter construct containing five copies of the GAL4 DNA binding site driving expression of secreted placental alkaline phosphatase (SPAP) and beta-galactosidase. After 16 h, the medium was exchanged to DME medium supplemented with 10% delipidated fetal calf serum and the test compound at the appropriate concentration. After an additional 24 h, cell extracts were prepared and assayed for alkaline phosphatase and β-galactosidase activity. Alkaline phosphatase activity was corrected for transfection efficiency using the beta-galactosidase activity as an internal standard (see, for example, Kliewer, S. A., et. al. Cell 83, 813-819 (1995)). Rosiglitazone (BRL 49653) was used as a positive control in the hPPAR gamma assay. The positive control in the hPPAR alpha assays was 2-4-[2-(3-[4-fluorophenyl]-1-heptylureido)ethyl]-phenoxy-(2-methyl propionic acid (WO 97/36579). The positive control for PPAR delta assays was 2-{2-methyl-4-[({4-methyl-2-{trifluoromethyl)phenyl]-1,3-thiazol-5-yl}methyl)sulfanyl]phenoxy}acetic acid (WO 01/00603). The positive control was (5-{4-[2-(Methyl-pyridin-2-yl-amino)-ethoxy]-benzyl}-thiazolidine-2,4-dione (J. Med. Chem. 1994, 37(23), 3977), for PPAR gamma.
(§2) Activities in three hPPAR subtypes are reported in the table and are expressed in micromolar.

hPPAR delta = molecular target: T2, hPPAR delta (Homo sapiens, UniProt Q03181); details: read-out: EC50 μM HPPARδ
T2 construct: expressed in transfected cells; host or cells: CV-1 cells
T2 sequence (Q03181 211-439 limits assumed): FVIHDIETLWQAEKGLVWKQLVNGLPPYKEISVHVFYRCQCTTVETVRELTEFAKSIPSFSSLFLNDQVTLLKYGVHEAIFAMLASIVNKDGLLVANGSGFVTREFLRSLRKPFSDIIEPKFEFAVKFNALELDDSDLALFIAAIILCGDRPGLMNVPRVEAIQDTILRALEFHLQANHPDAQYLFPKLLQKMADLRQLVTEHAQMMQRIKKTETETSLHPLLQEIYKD
Source text: as §1, §2

hPPAR gamma = molecular target: T3, hPPAR gamma (Homo sapiens, UniProt P37231); details: read-out: EC50 μM HPPARγ
T3 construct: expressed in transfected cells; host or cells: CV-1 cells
T3 sequence (P37231 238-503 limits assumed): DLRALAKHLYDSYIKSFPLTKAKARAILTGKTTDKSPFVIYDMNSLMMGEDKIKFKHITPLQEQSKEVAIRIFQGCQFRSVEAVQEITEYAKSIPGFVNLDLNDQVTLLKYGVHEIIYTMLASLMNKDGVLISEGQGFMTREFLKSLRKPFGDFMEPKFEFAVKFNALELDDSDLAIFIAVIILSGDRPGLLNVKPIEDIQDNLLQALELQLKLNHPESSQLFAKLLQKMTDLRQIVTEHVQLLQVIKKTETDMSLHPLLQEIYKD
Source text: Compounds were screened for functional potency in transient transfection assays in CV-1 cells for their ability to activate the PPAR subtypes (transactivation assay). A previously established chimeric receptor system was utilized to allow comparison of the relative transcriptional activity of the receptor subtypes on the same target gene and to prevent endogenous receptor activation from complicating the interpretation of results. […] The ligand binding domains for murine and human PPAR alpha, PPAR gamma, and PPAR delta were each fused to the yeast transcription factor GAL4 DNA binding domain. CV-1 cells were transiently transfected with expression vectors for the respective PPAR chimera along with a reporter construct containing five copies of the GAL4 DNA binding site driving expression of secreted placental alkaline phosphatase (SPAP) and beta-galactosidase. After 16 h, the medium was exchanged to DME medium supplemented with 10% delipidated fetal calf serum and the test compound at the appropriate concentration. After an additional 24 h, cell extracts were prepared and assayed for alkaline phosphatase and β-galactosidase activity.

SMILES	EC50 (hPPAR alpha) [µM]	EC50 (hPPAR delta) [µM]	EC50 (hPPAR gamma) [µM]
Cc1cc(CNC(=O)c2cc(-c3ccc(C(C)(C)C)cc3)n(C)n2)ccc1OC(C)(C)C(=O)O [Example 1, 2-[(4-{[({5-[4-(1,1-dimethylethyl)phenyl]-1-methyl-1H-pyrazol-3-yl)carbonyl)amino]methyl}-2-methylphenyl)oxy]-2-methylpropanoic acid]	0.014	5.45	–
Cc1cc(CNC(=O)c2cc(-c3ccc(C(C)C)cc3)nn2C)ccc1OC(C)(C)C(=O)O [Example 2]	0.018	0.82	0.044
C=CCc1cc(CNC(=O)c2cc(-c3ccc(C(C)(C)C)cc3)nn2C)ccc1OC(C)(C)C(=O)O [Example 3]	0.1	> 10	0.212
CCCc1cc(CNC(=O)c2cc(-c3ccc(C(C)(C)C)cc3)nn2C)ccc1OC(C)(C)C(=O)O [Example 4, 2-[(4-{[{(3-[4-(1,1-dimethylethyl)phenyl]-1-methyl-1H-pyrazol-5-yl}carbonyl)amino]methyl}-2-propylphenyl)oxy]-2-methylpropanoic acid]	0.066	1.09	0.072
CCn1nc(-c2ccc(C(C)(C)C)cc2)cc1C(=O)NCc1ccc(OC(C)(C)C(=O)O)c(OC)c1 [Example 5]	0.301	> 10	0.444
Cc1cc(CNC(=O)c2cc(-c3ccc(CC(C)C)cc3)n(C)n2)ccc1OC(C)(C)C(=O)O [Example 7, 2-methyl-2-[(2-methyl-4-{[({1-methyl-5-[4-(2-methylpropyl)phenyl]-1H-pyrazol-3-yl}carbonyl)amino]methyl}phenyl)oxy]propanoic acid]	0.002	2.06	0.008
Cc1cc(CNC(=O)c2cc(-c3ccc(CC(C)C)cc3)nn2C)ccc1OC(C)(C)C(=O)O [Example 8, 2-methyl-2-[(2-methyl-4-{[({1-methyl-3-[4-(2-methylpropyl)phenyl]-1H-pyrazol-5-yl}carbonyl)amino]methyl}phenyl)oxy]propanoic acid]	0.051	1.07	0.059
COc1cc(CNC(=O)c2cc(-c3ccc(C(C)C)cc3)nn2C)ccc1OC(C)(C)C(=O)O [Example 10]	2.9	> 10	0.554
Cc1cc(CNC(=O)c2cc(-c3ccc(C(C)(C)C)cc3)nn2C)ccc1OC(C)(C)C(=O)O [Example 11, 2-[(4-{[({3-[4-(1,1-dimethylethyl)phenyl]-1-methyl-1H-pyrazol-5-yl}carbonyl)amino]methyl}-2-methylphenyl)oxy]-2-methylpropanoic acid]	0.05	2.17	–
Cn1nc(-c2ccc(C(C)(C)C)cc2)cc1C(=O)NCc1ccc(OC(C)(C)C(=O)O)cc1 [Example 16, 12-[(4-{[({3-[4-[1,1-dimethylethyl)phenyl]-1-methyl-1H-pyrazol-5-yl}carbonyl)amino]methyl}phenyl)oxy]-2-methylpropanoic acid]	0.163	–	1.09
Cn1nc(C(=O)NCc2ccc(OC(C)(C)C(=O)O)cc2)cc1-c1ccc(C(C)(C)C)cc1 [Example 17]	0.07	–	0.376
Cc1cc(CNC(=O)c2cc(-c3ccc(-c4ccccc4)cc3)n(C)n2)ccc1OC(C)(C)C(=O)O [Example 22, 2-({4-[({[5-(4-biphenylyl)-1-methyl-1H-pyrazol-3-yl]carbonyl}amino)methyl]-2-methylphenyl}oxy)-2-methylpropanoic acid]	0.02	1.55	–
C=CCOc1ccc(-c2cc(C(=O)NCc3ccc(OC(C)(C)C(=O)O)c(C)c3)nn2C)cc1 [Example 59, 2-methyl-2-[(2-methyl-4-{[({1-methyl-5-[4-(2-propen-1-yloxy)phenyl]-1H-pyrazol-3-yl}carbonyl)amino]methyl}phenyl)oxy]propanoic acid]	0.094	–	0.028
